Test results published in patent US10813938B2 (priority 2015, dated 2020).
Values after ≈ are worked out from the molar mass of the structure shown.

Key:
[1] = RH stability study (~97% RH, XRPD before/after); conditions: ~97% relative humidity, 1 day, ambient temperature; FIG. 16
physchem = conditions: pH 6.8, aqueous buffer, thermodynamic from solid
Experimental: The injection volume was 15 μL. […] The following gradient was used: […]

| solubility at 24 h (physchem) | Compound | Solid form after exposure to ~97% RH (XRPD) [1] |
| --- | --- | --- |
|  | Cn1c(=O)c2c(ncn2C)n(C)c1=O [Caffeine] | conversion to the hydrate |
| 24 mg/mL (≈ 52.4 mM) | O=C(O[C@@H]1Cc2c(O)cc(O)cc2O[C@@H]1c1cc(O)c(O)c(O)c1)c1cc(O)c(O)c(O)c1 [EGCG, Epigallocatechin gallate] |  |
